CC50 data for 65 compounds are collected here from PMC6792352, “Limited Chemical Structural Diversity Found to Modulate Thyroid Hormone Receptor in the Tox21 Chemical Library” (Environmental Health Perspectives, 2019).

Structures can show the parent of a compound that is named as a salt. Where only a bound is given, the exact number is not on record here.

The nature of this series: in vitro. Conditions: rat, gh3-tre-luc cells.

The CC50 is the concentration giving 50% cytotoxicity. Low values mean harm at low concentration, high ones better tolerance by the cells.

On to `CO[C@@H]1[C@@H](OC(N)=O)[C@@H](O)[C@H](Oc2ccc3c(O)c(NC(=O)c4ccc(O)c(CC=C(C)C)c4)c(=O)oc3c2C)OC1(C)C` [Novobiocin sodium], for which, under “AC50 (uM) modified / 1000”, the CC50 at 24 h was above 20 µM. Still for that read-out and setting: the figure for `Cc1ccc2c(n1)Oc1ccc(C(C)C(=O)OCC(=O)N(C)C)cc1C2` (stereo not drawn) [Mepranoprofen arbamel] is above 50 µM; for `COc1nc(C)nc(Cl)c1N=C1NCCN1` [Moxonidine] it is above 20 µM. For `CO[C@H]1C[C@@H]2CC[C@@H](C)[C@@](O)(O2)C(=O)C(=O)N2CCCC[C@H]2C(=O)O[C@H]([C@H](C)C[C@@H]2CC[C@@H](OC(=O)C(C)(CO)CO)[C@H](OC)C2)CC(=O)[C@H](C)/C=C(\C)[C@@H](O)[C@@H](OC)C(=O)[C@H](C)C[C@H](C)/C=C/C=C/C=C/1C` [Temsirolimus], the CC50 at 24 h (AC50 (uM) modified / 1000) is above 50 µM. Under “AC50 (uM) modified / 1000”, `CCCCC(CC)CCC(CC(C)C)OS(=O)(=O)O` (stereo not drawn) [7-Ethyl-2-methyl-4-undecanolsulfate, sodium salt] gave a CC50 at 24 h above 90 µM. The compound `CCOC(C)(C)C` [Ethyl T-butyl ether] registered a CC50 at 24 h (AC50 (uM) modified / 1000) above 90 µM. For the setting “AC50 (uM) modified / 1000”, `CN(C)C(=O)Nc1cccc(C(F)(F)F)c1` [Fluometuron] came in with a CC50 at 24 h above 90 µM. The compound `CCCN(CCC)c1c([N+](=O)[O-])cc(C(C)C)cc1[N+](=O)[O-]` [Isopropalin] showed a half-maximal cytotoxic concentration (CC50) at 24 h (AC50 (uM) modified / 1000, Tox21_110001=Tox21_202228, viability, 1 nM T3 present, 24 h) of 89.1 µM and a CC50 at 24 h (AC50 (uM) modified / 1000, Tox21_110001=Tox21_300422, viability, 1 nM T3 present, 24 h) of 45.3 µM. Where the note is “AC50 (uM) modified / 1000”, `COc1c(O[C@@H]2O[C@H](CO)[C@@H](O)[C@H](O)[C@H]2O)cc2c(c1OC)-c1ccc(SC)c(=O)cc1[C@@H](NC(C)=O)CC2` [Thiocolchicoside] displayed a CC50 at 24 h above 20 µM. Same read-out and setting: the same measure for `O=C1CN=C(c2ccccc2)c2cc(Cl)ccc2N1CC1CC1` [Prazepam]: above 90 µM. Under “AC50 (uM) modified / 1000, Tox21_110001=Tox21_110431, viability, 1 nM T3 present, 24 h”, `C[C@H](N)[C@H](O)c1ccccc1` [Phenylpropanolamine hydrochloride] yielded a CC50 at 24 h above 20 µM. `O=[N+]([O-])c1c(Cl)c(Cl)cc(Cl)c1Cl` [2,3,5,6-Tetrachloronitrobenzene] yielded a CC50 at 24 h (AC50 (uM) modified / 1000, Tox21_110001=Tox21_400013, viability, 1 nM T3 present, 24 h) above 90 µM.

Regarding `CC(C)OC(=O)C(C)N(C(=O)c1ccccc1)c1ccc(F)c(Cl)c1` (stereo not drawn) [Flamprop-isopropyl], under “AC50 (uM) modified / 1000”, the CC50 at 24 h is 50 µM. In other words, the double-digit micromolar range. On the same count and under the same terms, the same measure for `O=C1CCN(c2ccccc2)N1` [3-Pyrazolidinone,1-phenyl-]: above 90 µM; for `NC(=O)[C@@H]1CCCN1C(=O)[C@H](Cc1cnc[nH]1)NC(=O)[C@@H]1CCC(=O)N1` [Protirelin]: above 50 µM; for `Cc1ccc(C(C)(C)c2ccc(C)cc2)cc1` [2,2-Di-4-tolylpropane]: above 50 µM. Still for that read-out and setting: the figure for `C[C@H](CCC(=O)O)[C@H]1CC[C@H]2[C@@H]3C(=O)C[C@@H]4CC(=O)CC[C@]4(C)[C@H]3CC(=O)[C@]12C` [Dehydrocholic acid] is above 50 µM; for `CC[C@@H](N)CO` [(2R)-2-Aminobutan-1-ol] it is above 100 µM. The same measure, in the same setting: the same measure for `O=Cc1ccccc1[N+](=O)[O-]` [2-Nitrobenzaldehyde]: above 90 µM. Regarding `O=C1NCN(c2ccccc2)C12CCN(CCCOc1ccc(F)cc1)CC2` [AMI-193], the CC50 at 24 h (AC50 (uM) modified / 1000) was 14.1 µM. This counts as double-digit micromolar. Take `CC(C)CN(C[C@@H](O)[C@H](Cc1ccccc1)NC(=O)O[C@H]1CCOC1)S(=O)(=O)c1ccc(N)cc1` [Amprenavir]: the 50% cytotoxic concentration (CC50) at 24 h (AC50 (uM) modified / 1000) is above 50 µM. The compound `CC(C)C(OC(=O)c1ccccc1)C(C)(C)COC(=O)c1ccccc1` (stereo not drawn) [2,2,4-Trimethylpentane-1,3-diyl dibenzoate] came in with a CC50 at 24 h (AC50 (uM) modified / 1000) of 76 µM.

In turn, `CC(C)C(C(=O)OC(C#N)c1cccc(Oc2ccccc2)c1)c1ccc(OC(F)F)cc1` (stereo not drawn) [Flucythrinate] returned a CC50 at 24 h (AC50 (uM) modified / 1000) above 90 µM. On the same count and under the same terms, the figure for `COc1ccc(C)cc1N` [2-Methoxy-5-methylaniline] is above 90 µM. Where the note is “AC50 (uM) modified / 1000”, `COC(=O)c1cccc(C(=O)OC)c1` [Dimethyl isophthalate] gave a CC50 at 24 h above 90 µM. In turn, `O=C(O)CNC(=O)c1ccc([N+](=O)[O-])cc1` [4-Nitrohippuric acid] displayed a CC50 at 24 h (AC50 (uM) modified / 1000) above 90 µM. `CCOc1ccccc1O` [2-Ethoxyphenol] registered a CC50 at 24 h (AC50 (uM) modified / 1000) above 90 µM. Same read-out and setting: the figure for `O=C(O)c1c(Cl)ccc(Cl)c1Cl` [2,3,6-Trichlorobenzoic acid] is above 90 µM; for `O=C(NOC[C@H](O)CO)c1ccc(F)c(F)c1Nc1ccc(I)cc1F` [PD 0325901] it is above 50 µM. Turning to `CNC(=O)Oc1ccccc1C(=O)Nc1ccccc1` [Anilamate], the CC50 at 24 h (AC50 (uM) modified / 1000, Tox21_110001=Tox21_111928, viability, 1 nM T3 present, 24 h) was above 50 µM. For `COc1cc(C(=O)NCCCCCC(=O)O)cc(OC)c1OC` [Capobenic acid], the CC50 at 24 h (AC50 (uM) modified / 1000) was above 50 µM. Still for that read-out and setting: the figure for `CC(=O)CC(=O)Nc1ccccc1` [Acetoacetanilide] is above 90 µM; for `CC(=O)O[C@H]1CC[C@@]2(C)C(=CC[C@@H]3[C@@H]2CC[C@]2(C)C(c4cccnc4)=CC[C@@H]32)C1` [Abiraterone acetate] it is above 50 µM; for `CC[C@H]1NC(=O)[C@@H](NC(=O)c2ncccc2O)[C@@H](C)OC(=O)[C@H](c2ccccc2)NC(=O)[C@@H]2CC(=O)CCN2C(=O)[C@H](Cc2ccccc2)N(C)C(=O)[C@@H]2CCCN2C1=O` [Virginiamycin S1] it is above 50 µM. Regarding `CC(=O)C1=C(C)[C@@H]2C[C@@]3(C1)[C@H](C)CC[C@H]3C2(C)C` [Acetyl cedrene], half-maximal cytotoxicity (AC50 (uM) modified / 1000) (CC50 at 24 h) was put at 56.9 µM. In other words, the double-digit micromolar range. Same read-out and setting: the figure for `CN(C)[C@@H]1C(O)=C(C(N)=O)C(=O)[C@@]2(O)C(O)=C3C(=O)c4c(O)cccc4[C@@](C)(O)[C@H]3[C@H](O)[C@@H]12` [Oxytetracycline hydrochloride] is above 90 µM. In turn, `C/C=C/C=C/CCCCCCCO` [Codlelure] displayed a CC50 at 24 h (AC50 (uM) modified / 1000) of 79.4 µM. This counts as double-digit micromolar. Still for that read-out and setting: the figure for `O=C(O)c1cc(O)c2ccccc2c1O` [1,4-Dihydroxy-2-naphthoic acid] is 12.2 µM; for `C[C@H](CN1CCCC1)C(=O)c1ccc(C(F)(F)F)cc1` [Lanperisone hydrochloride] it is above 50 µM. For the compound `O=C1OC2(c3ccccc31)c1cc(Br)c(O)c(Br)c1Oc1c2cc(Br)c(O)c1Br` [2',4',5',7'-Tetrabromofluorescein], it took 5.55 µM to reach half-maximal cytotoxicity (AC50 (uM) modified / 1000) (CC50 at 24 h). Same read-out and setting: the same measure for `O=C(c1cc2ccccc2o1)N1CCN(Cc2ccccc2)CC1` [Befuraline]: above 50 µM; for `O=C1CCCCC1C1CCCCC1` (stereo not drawn) [1,1'-Bi(cyclohexyl)-2-one]: above 90 µM; for `C[n+]1ccccc1/C=N/O` [Pralidoxime chloride]: above 20 µM.

In the case of `O=C(CCCCCCCCCCCCC1CCCC1)Nc1ccc(S(=O)(=O)c2ccc(NC(=O)CCCCCCCCCCCCC3CCCC3)cc2)cc1` [Chaulmosulfone], under “AC50 (uM) modified / 1000”, the CC50 at 24 h was above 50 µM. Compound `N#CC(O)c1ccccc1` (stereo not drawn) [alpha-Hydroxybenzeneacetonitrile] came in with a CC50 at 24 h (AC50 (uM) modified / 1000, Tox21_110001=Tox21_200804, viability, 1 nM T3 present, 24 h) above 90 µM. As to `CCCN(CCCl)c1c([N+](=O)[O-])cc(C(F)(F)F)cc1[N+](=O)[O-]` [Fluchloralin], the CC50 at 24 h (AC50 (uM) modified / 1000, Tox21_110001=Tox21_301333, viability, 1 nM T3 present, 24 h) is above 90 µM. Where the note is “AC50 (uM) modified / 1000”, `CCCCN(CCCC)CC(O)c1cc(Cl)cc2c1-c1ccc(Cl)cc1/C2=C/c1ccc(Cl)cc1` (stereo not drawn) [Lumefantrine] returned a CC50 at 24 h of 38.5 µM. For the compound `C=CCOCC1CO1` (stereo not drawn) [Allyl glycidyl ether], the CC50 at 24 h (AC50 (uM) modified / 1000) was above 90 µM. For the compound `Cc1cc2c(OCC(CNC(C)(C)C)OC(=O)c3ccccc3)cccc2[nH]1` (stereo not drawn) [Bopindolol], the CC50 at 24 h (AC50 (uM) modified / 1000) was determined as 42.5 µM. In other words, the double-digit micromolar range. As for `CC(=O)C(Cl)Cl` [1,1-Dichloropropanone], for the setting “AC50 (uM) modified / 1000, Tox21_110001=Tox21_201090, viability, 1 nM T3 present, 24 h”, the CC50 at 24 h is above 90 µM. On to `CCc1cc(C2=C(C(=O)O)N(c3ccccc3C(F)(F)F)S(=O)(=O)c3ccccc32)cc2c1OCO2` [Fandosentan potassium salt], for which half-maximal cytotoxicity (AC50 (uM) modified / 1000) (CC50 at 24 h) was put at 8.29 µM. In other words, the single-digit micromolar range. As for `NC(=S)Nc1ccccc1` [1-Phenyl-2-thiourea], where the note is “AC50 (uM) modified / 1000, Tox21_110001=Tox21_201682, viability, 1 nM T3 present, 24 h”, the CC50 at 24 h was above 90 µM.

Compound `CSc1cnccn1` [Pyrazinyl methyl sulfide] came in with a CC50 at 24 h (AC50 (uM) modified / 1000) above 90 µM. On the same count and under the same terms, the same measure for `C1=Cc2cccc3cccc1c23` [Acenaphthylene]: above 90 µM.

Turning to `Nc1ccc2cc(S(=O)(=O)O)cc(O)c2c1N=Nc1ccccc1C(F)(F)F` [Acid Red 337], half-maximal cytotoxicity (AC50 (uM) modified / 1000) (CC50 at 24 h) was put at 89.3 µM. Same read-out and setting: the figure for `CCCCCCCCC=CCCCCCCCC1=NCCN1CCO` [2-(8-Heptadecenyl)-2-imidazoline-1-ethanol] is 23.2 µM; for `C=C(C)C(=O)OCC[N+](C)(C)C` [(2-(Methacryloyloxy)ethyl)trimethylammonium chloride] it is 62.4 µM. Compound `COC(=O)N/N=C/c1c[n+]([O-])c2ccccc2[n+]1[O-]` [Carbadox] displayed a CC50 at 24 h (AC50 (uM) modified / 1000) above 50 µM. On the same count and under the same terms, the figure for `CC1(C)CC(O)CC(C)(C)N1[O]` [4-Hydroxy-2,2,6,6-tetramethylpiperidin-1-yl)oxidanyl] is above 90 µM; for `O=C1CCc2ccc(OCCCCN3CCN(c4cccc(Cl)c4Cl)CC3)cc2N1` [Aripiprazole] it is 11.8 µM. Compound `COC(=O)[C@@H](N)CS` [Methyl L-cysteinate hydrochloride] came in with a half-maximal cytotoxic concentration (CC50) at 24 h (AC50 (uM) modified / 1000) above 50 µM. On the same count and under the same terms, the figure for `CCCC1CCC(=O)O1` (stereo not drawn) [1,4-Heptanolide] is above 90 µM. In the case of `Nc1ccc(N=Nc2ccc(N)cc2)cc1` [4,4'-Diaminoazobenzene], it took 32.1 µM to reach half-maximal cytotoxicity (AC50 (uM) modified / 1000) (CC50 at 24 h). Compound `CCCC1O[C@@H]2C[C@H]3[C@@H]4CCC5=CC(=O)C=C[C@]5(C)[C@H]4[C@@H](O)C[C@]3(C)[C@]2(C(=O)CO)O1` (stereo partly drawn) [Budesonide] came in with a CC50 at 24 h (AC50 (uM) modified / 1000) above 90 µM. Same read-out and setting: the figure for `Cc1ccccc1OCC(=O)O` [(2-Methylphenoxy)acetic acid] is above 90 µM.
